Patent US20190175526A1, “METHODS FOR TREATING CANCER” (Macau University of Science and Technology, priority 2017, published 2019)

What was measured:
[1] = system: A549 cells; assay: MTT cell viability assay, A549 cells; type: cell-based; conditions: Homo sapiens, cell line A459 (A549), 72 hours
Procedure: (§1) Cell lines A549 and H460 were purchased from ATCC and cultivated in RPMI 1640 medium supplemented with 10% FBS (Gibco, Big Cabin, Okla., Me., USA), 1% penicillin-streptomycin solution and maintained at 37° C. in a CO2 incubator with 5% CO2. Compound 3039-0164 was dissolved in DMSO and stored at −40° C. Cells were seeded on a 96-well microplate with 3,000 cells/well, cultured overnight for cell adhesion, and treated with DMSO or various concentrations of compound 3039-0164 for 72 hours. Then, each well was added with 10 μL MTT (5 mg/mL) and incubated for 4 hours at […], followed by adding 100 μL acidic isopropanol (10% SDS and 0.01 mol/L HCl). Finally, an absorbance at 570 nm was measured by a microplate reader (Tecan, Morrisville, N.C., USA). Cell viability was calculated relative to untreated controls, with results based on at least three independent experiments. Two human non-small cell lung cancer (NSCLC) cell lines, A549 and H460, were treated with an increasing concentration (0, 2.5, 5.0, 7.5 and 10.0 μM) of compound 3039-0164 for 72 hours, and then cell viability was determined by MTT assay. As shown in FIG. 2a and FIG. 2b, the cell viability of A549 and H460 were both decreased by compound 3039-0164 in a dose-dependent manner.

[2] = system: H460 cells; assay: MTT cell viability assay, H460 cells; type: cell-based; conditions: Homo sapiens, NCI-H460, cell line H460, 72 hours
Procedure: as §1

[3] = target: PRMT5 (Homo sapiens, UniProt O14744); assay: PRMT5 enzymatic assay (AlphaLISA); type: biochemical; conditions: 60 minutes at room temperature, read-out: IC50, PRMT5 enzyme activity
Chain of PRMT5 (O14744 2-637 limits assumed): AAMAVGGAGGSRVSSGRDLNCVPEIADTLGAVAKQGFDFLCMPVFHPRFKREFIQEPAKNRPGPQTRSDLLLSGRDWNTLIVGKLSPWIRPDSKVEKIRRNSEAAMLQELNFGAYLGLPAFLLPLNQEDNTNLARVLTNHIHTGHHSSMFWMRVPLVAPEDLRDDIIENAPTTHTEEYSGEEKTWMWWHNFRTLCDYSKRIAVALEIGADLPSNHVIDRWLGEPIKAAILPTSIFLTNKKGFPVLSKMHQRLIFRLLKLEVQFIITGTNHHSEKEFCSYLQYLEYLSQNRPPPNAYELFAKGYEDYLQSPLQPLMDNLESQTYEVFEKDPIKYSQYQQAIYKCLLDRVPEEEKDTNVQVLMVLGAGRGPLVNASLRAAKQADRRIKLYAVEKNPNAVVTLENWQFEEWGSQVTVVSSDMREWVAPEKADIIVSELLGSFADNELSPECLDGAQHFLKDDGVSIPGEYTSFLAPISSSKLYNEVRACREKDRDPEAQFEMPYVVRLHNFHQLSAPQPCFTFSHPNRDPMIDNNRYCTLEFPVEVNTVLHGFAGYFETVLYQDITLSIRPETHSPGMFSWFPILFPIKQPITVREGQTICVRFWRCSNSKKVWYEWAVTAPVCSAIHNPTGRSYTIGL
Chain of PRMT5 (Q9BQA1 2-342 partner limits assumed): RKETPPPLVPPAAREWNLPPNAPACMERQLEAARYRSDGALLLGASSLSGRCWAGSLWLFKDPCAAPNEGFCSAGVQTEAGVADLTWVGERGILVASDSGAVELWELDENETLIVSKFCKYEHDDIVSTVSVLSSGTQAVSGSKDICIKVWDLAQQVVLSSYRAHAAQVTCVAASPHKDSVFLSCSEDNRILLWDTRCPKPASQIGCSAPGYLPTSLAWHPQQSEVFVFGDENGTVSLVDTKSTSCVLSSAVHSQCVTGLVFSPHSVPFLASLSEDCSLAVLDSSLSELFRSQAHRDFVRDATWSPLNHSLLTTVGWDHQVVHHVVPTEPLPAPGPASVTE
Procedure: PRMT5 enzymatic assay was carried out by Shanghai ChemPartner Co. (998 Halei Road, Pudong New Area, Shanghai, 201203, China). To measure IC50 values, 10 concentrations of compound 3039-0164 were tested. PRMT5 was purchased from BPS bioscience (Cat. No. 51045), and SAM/SAH were purchased from Sigma. Inc (Cat. No. A7007-100MG and No. A9384-25MG). Compound 3039-0164 was prepared as 10 mM stock in DMSO and diluted to final concentration in DMSO. PRMT5 and substrates were incubated with indicated concentrations of compounds in a 384-well plate for 60 minutes at room temperature. Then, acceptor and donor solutions were added to label the residual substrates of PRMT5. The labeling process lasted for 60 minutes at room temperature, followed by reading endpoint with EnSpire Plate Reader with Alpha mode (PerkinElmer). To investigate the influence of compound 3039-0164 on enzymatic activity and its “on-target” effect, AlphaLISA assay was carried out.

- IC50 [1]: 7.79 ± 1.8 µM
- IC50 [2]: 8.64 ± 1.46 µM
- IC50 [3]: 63.2 ± 4.5 µM
SMILES: O=C1c2ccccc2C(=O)c2c(NCCCN(CCO)CCO)cccc21 [compound 3039-0164]
